Drawing on PubChem BioAssay (NCI), this text covers GI50 and TGI for one compound.

Common to all, as to assay: DTP human tumour cell line panel, 48 h
In test [1] the test system is SW-620 colon.
Test [2] relates to RXF 393 renal.
Test [3] has as its system SF-539 CNS.
The test system of test [4] is HCT-116 colon.
In test [5] the test system is UACC-257 melanoma.
For test [6], the system named is TK-10 renal.
The test system of test [7] is BT-549 breast.
Test [8] concerns 786-0 renal.
For test [9], the system named is MOLT-4 leukemia.
Test [10] relates to MALME-3M melanoma.

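1) Cells in 96-well plates. 2) Compound, 48 h, 5 concentrations. 3) Linear interpolation between surrounding doses. 4) Unreached endpoint = highest concentration. GI50 = concentration required for 50% inhibition of growth. TGI marks complete inhibition of growth.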 A value given as a limit tells only on which side of the number the result lay.

What is called GI50 is the concentration that inhibits growth by half. Usually TGI stands for the concentration giving total growth inhibition. The low end stands for greater sensitivity of the cells, the high end for lower sensitivity of the cells. As for `Cc1cc2c(cc1Cl)SC(N(N(C)C)S(=O)(=O)c1ccc(Cl)cc1)=NS2(=O)=O`, the GI50 is 32.5 µM in test [1]; 31.3 µM in test [2]; 18.2 µM in test [3]; 23.6 µM in [4]; 23.8 µM in test [5]; 43.9 µM in [6]. Moreover, the GI50 in test [7] was 19.4 µM; in test [8] it was 34.8 µM; in [9], 35 µM; in [10] it was 22 µM. For the same compound, the TGI in [1] was > 100 µM; in test [2], > 100 µM; in [3], 45.8 µM; in test [4], 71.1 µM; in test [5] it was 88.5 µM; in test [6], > 100 µM. The TGI is 48.7 µM in test [7], > 100 µM in test [8], > 100 µM in test [9] and 62 µM in [10].
